Laboratory results taken from patent US8853156B2, “Treatment for diabetes in patients inappropriate for metformin therapy” (Boehringer Ingelheim International GmbH, priority 2008, dated 2014).

Columns and labels:
[1] = male, human, in vivo, po
[2] = Pharmacokinetics of multiple oral doses once daily for 12 days in patients with type 2 diabetes

CC#CCn1c(N2CCC[C@@H](N)C2)nc2c1c(=O)n(Cc1nc(C)c3ccccc3n1)c(=O)n2C [BI 1356]
excreted unchanged in urine and feces [1]: 90 % of excreted radioactivity
parent compound share of sample radioactivity in plasma [1]: 74 % of sample radioactivity
excretion route and form ([2]; human, in vivo): primarily excreted unchanged via the bile
main excretion organ ([2]; therapeutic oral dose levels): mainly excreted via the liver
